From patent publication US20050037446A1, “Agents that recognize src when phosphorylated at serine 17” (priority 2001, published 2005)

How the values were obtained:
Raf-1 and Rap1 = assay: Association of Raf-1 with His-Rap1 (Ni-NTA pull-down), NIH3T3 cells; assay type: cell-based; details: Forskolin-stimulated NIH3T3 cells
Method: NIH3T3 cells were transfected using Lipofectamine (see EXAMPLE 1) with polyhistidine-tagged Rap1 along with CBR or Cb1-ct (see EXAMPLE 2) as previously described (Schmitt and Stork, Mol. Cell. Biol. 21:3671-83, 2001; Schmitt and Stork, J. Biol. Chem. 275:25342-50,2000). Cells were left untreated or stimulated with Forskolin, as described in EXAMPLE 1. Subsequently, cells were lysed in ice-cold buffer containing 1% NP40, 10 mM Tris, pH 8.0, 20 mM NaCl, 30 mM MgCl2, 1 mM PMSF, and 0.5 mg/ml aprotinin and supernatants prepared by low speed centrifugation. Transfected His-Rap1 proteins were precipitated from supernatants containing equal amounts of protein using Ni-NTA agarose (Qiagen Inc., Chatswoth, Calif.) and washed with 20 mM imidazole in lysis buffer and eluted with 500 mM imidazole and 5 mM EDTA in phosphate-buffered saline. The eluates containing His-Rap1 proteins were separated on SDS-PAGE, blotted onto PVDF membranes, and Raf-1 proteins detected by Western blotting using anti-Raf-1 antibodies (Santa Cruz Biotechnology Inc.).

Rap1 = Rap1 activation assay in Src++ and SYF fibroblasts; assay type: cell-based, mouse
Method: The Rap1 activation affinity assay was performed as follows. A GST fusion protein of the Rap1-binding domain of RalGDS (GST-RalGDS, Dr. Bos, Utrecht University, The Netherlands) was expressed in E. coli following induction by isopropyl-1thio-β-D-galactopyranoside. Active Rap1 was isolated as previously described (Franke et al., EMBO J. 16:252-9, 1997). Briefly, equivalent amounts of supernatants (500 μg) were incubated with GST-RalGDS-Rap1 binding domain coupled to glutathione beads. Following a one hour incubation at 4° C., beads were pelleted and rinsed threes times with ice-cold lysis buffer. The protein was eluted from the beads using 2× Laemmli buffer and applied to a 12% SDS-polyacrylamide gel. […] Proteins were detected using enhanced chemiluminescence. […]
Following selection, SYF cells were left untreated or stimulated with Forskolin in the presence or absence of H89 or PP2. Cells were lysed in ice-cold lysis buffer and the lysates analyzed by Western blot for phosphorylation of myc-ERK2 as described above. […]
SYF cells were co-transfected with Flag-Rap1 and either vector, Flag-Src, or Flag-SrcS 17A and stimulated with Forskolin as described in the above examples. Cell lysates were examined for Rap1 activation using the method described in EXAMPLE 1 or analyzed by Western blot to identify Flag-containing proteins. […]

| SMILES | Effect on association between Raf-1 and Rap1 (Raf-1 and Rap1) | Rap1 activation by agonist (Rap1; SYF cells) | Rap1 activation by agonist (Rap1; Src++ cells) |
| --- | --- | --- | --- |
| CC(C)(C)n1nc(-c2ccc(Cl)cc2)c2c(N)ncnc21 [PP2, 4-amino-5-(4-chlorophenyl)-7-(t-butyl)pyazolo[3,4-d]pyrimidine] | blocked |  |  |
| CC(C)NCC(O)c1ccc(O)c(O)c1 (stereo not drawn) [isoproterenol] |  | absent | retained |
